The values that follow come from patent US10087188B2, “Benzamide imidazopyrazine Btk inhibitors” (MERCK SHARP & DOHME CORP., priority 2014, dated 2018).

Chain of BTK enzyme (recombinant full-length BTK, hBTK) (Q06187 whole entry): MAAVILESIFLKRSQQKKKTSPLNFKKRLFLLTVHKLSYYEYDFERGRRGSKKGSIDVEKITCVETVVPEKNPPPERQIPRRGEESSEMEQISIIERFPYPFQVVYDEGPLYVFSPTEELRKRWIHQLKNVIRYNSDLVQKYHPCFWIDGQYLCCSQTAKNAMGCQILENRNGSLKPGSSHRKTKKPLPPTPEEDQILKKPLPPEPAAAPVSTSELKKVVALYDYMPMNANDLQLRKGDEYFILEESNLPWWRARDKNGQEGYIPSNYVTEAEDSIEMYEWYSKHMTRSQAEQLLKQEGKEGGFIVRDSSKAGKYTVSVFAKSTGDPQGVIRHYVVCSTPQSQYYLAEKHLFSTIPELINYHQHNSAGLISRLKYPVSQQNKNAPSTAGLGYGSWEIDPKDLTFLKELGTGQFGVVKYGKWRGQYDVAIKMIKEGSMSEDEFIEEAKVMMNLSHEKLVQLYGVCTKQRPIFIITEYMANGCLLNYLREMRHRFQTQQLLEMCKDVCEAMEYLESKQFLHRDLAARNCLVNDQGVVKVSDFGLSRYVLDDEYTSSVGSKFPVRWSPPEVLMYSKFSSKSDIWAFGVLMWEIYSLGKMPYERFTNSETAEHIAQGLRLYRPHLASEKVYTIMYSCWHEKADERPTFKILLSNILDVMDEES

One assay concerns the target BTK enzyme (recombinant full-length BTK, hBTK) (Homo sapiens (Human), UniProt Q06187). Nature of the assay: Btk enzyme activity assay, LANCE TR-FRET. The class given is biochemical. Conditions: 50 pM hBTK, 2 μM biotin-A5-peptide, 25 μM ATP; 60 minute compound & enzyme incubation; read-out: BTK binding IC50. Here is the method:
Btk Enzyme Activity Assay Methods
BTK enzymatic activity was determined with the LANCE (Lanthanide Chelate Excite) TR-FRET (Time-resolved fluorescence resonance energy transfer) assay. […] After 60 minutes incubation with detection reagents, reaction plates were read on a PerkinElmer EnVision plate reader using standard TR-FRET protocol.
(Time-resolved FRET reads energy transfer from a long-lived donor to a nearby acceptor.)
With `C[C@]1(C(=O)O)CCC[C@@H](c2nc(-c3ccc(C(=O)Nc4cc(C5CC5)ccn4)cc3)c3c(N)nccn23)C1` [Example 155, (1S,3R)-3-(8-amino-1-{4-[(4-cyclopropylpyridin-2-yl)carbamoyl]phenyl}imidazo[1,5-a]pyrazin-3-yl)-1-methylcyclohexane-carboxylic acid], the IC50 (in general, the concentration that gives 50% inhibition) came out at 0.0028 µM.

For the compound `CCc1ccnc(NC(=O)c2ccc(-c3nc([C@@H]4CCC[C@H](C(=O)O)C4)n4ccnc(N)c34)cc2)c1` [Example 7, (1S,3R)-3-(8-amino-1-{4-[(4-ethylpyridin-2-yl)carbamoyl]phenyl}imidazo [1,5-a]pyrazin-3-yl)cyclohexane-carboxylic acid], the IC50 was found to be 0.0014 µM.

Consider `Nc1nccn2c([C@H]3CN(C(=O)C4(C(=O)O)CCC4)CCO3)nc(-c3ccc(C(=O)Nc4cc(C(F)(F)F)ccn4)cc3F)c12` [Example 178, 1-({(2R)-2-[8-amino-1-(2-fluoro-4-{[4-(trifluoromethyl)pyridin-2-yl]carbamoyl}phenyl)imidazo [1,5-a]pyrazin-3-yl]morpholin-4-yl}carbonyl)cyclobutane-carboxylic acid], for which the IC50 came out at 0.0086 µM.

Another assay deals with HeLa cells. The assay is described as follows: [3H] Adenosine uptake assay. Conditions: Homo sapiens, HeLa, accumulation of tritiated adenosine into HeLa cells; compound concentration range 10 μM to 0.032 nM; read-out: ADU inhibition IC50 (adenosine uptake inhibition potency). The class given is cell-based. Here is the method: Compounds are also screen in an adenosine uptake functional cellular assay using the protocol described below:
[^3H] Adenosine Uptake Assay Methods
Adenosine uptake activity was determined by monitoring the accumulation of tritiated adenosine into HeLa cells (ATCC catalog #CCL-2) using a PMT-based radiometric detection instrument. […] These cells were incubated overnight at 37° C. in a humidified atmosphere with 5% (v/v) CO2. After this time the growth medium was removed and replaced with 40 μL assay medium comprising: Hanks balanced salts solution (HBSS; Thermo Fisher Catalog #SH30268.01)+5% (v/v) FBS. Compound stock solutions in DMSO were diluted in assay medium to 2.5× final compound concentration maintaining a constant DMSO concentration of 0.25% (v/v). 40 μL of compound in assay medium was dispensed into individual wells of the Cytostar-T plates and the plates were incubated for 30 minutes under ambient laboratory conditions. Following this incubation, 20 μL of 500 nM[^3H] adenosine (American Radiolabeled Chemicals Inc. Catalog #ART0287) in assay medium was added and incubated for a further 60 minutes under ambient laboratory conditions. The amount of radiolabel accumulation was then determined using a Perkin Elmer Topcount NXT microplate reader. In brief, HeLa cells adhere to the bottom of the Cytostar-T plate, uptake of [^3H]adenosine into these cells brings the radiolabel into sufficient proximity to excite the scintillant in the base of the plates. These events are captured by single PMT, time-resolved coincidence counting. IC50 values were determined by 4 parameter robust fit of counts per second values vs. (Log10) compound concentrations.
In the case of `Nc1nccn2c([C@@H]3CC[C@@H](CC(=O)O)C3)nc(-c3ccc(C(=O)Nc4cc(C(F)(F)F)ccn4)cc3)c12` [Example 55, {(1R,3R)-3-[8-amino-1-(4-{[4-(trifluoromethyl)pyridin-2-yl]carbamoyl}phenyl)imidazo[1,5-a]pyrazin-3-yl]cyclopentyl}acetic acid], the IC50 stood at 7.98 µM.

Staying with this assay, now noted: Homo sapiens; accumulation of tritiated adenosine into HeLa cells; compound concentration range 10 μM to 0.032 nM; read-out: ADU inhibition IC50 (adenosine uptake inhibition potency).
For the compound `C[C@@]1(C(=O)O)CC[C@H](c2nc(-c3ccc(C(=O)Nc4cc(C(F)(F)F)ccn4)cc3)c3c(N)nccn23)C1` [Example 40, (1R,3S)-3-[8-amino-1-(4-{[4-(trifluoromethyl)pyridin-2-yl]carbamoyl}phenyl)imidazo[1,5-a]pyrazin-3-yl]-1-methylcyclopentane-carboxylic acid], the half-maximal inhibitory concentration (IC50) was found to be 5.28 µM.

In the case of `C[C@]1(C(=O)O)CC[C@@H](c2nc(-c3ccc(C(=O)Nc4cc(C(F)(F)F)ccn4)cc3)c3c(N)nccn23)C1` [Example 37, (1S,3R)-3-[8-amino-1-(4-{[4-(trifluoromethyl)pyridin-2-yl]carbamoyl}phenyl)imidazo[1,5-a]pyrazin-3-yl]-1-methylcyclopentane-carboxylic acid], the IC50 came out at 8.55 µM.

As to `Nc1nccn2c([C@H]3C[C@@H]4[C@H](C3)[C@H]4C(=O)O)nc(-c3ccc(C(=O)Nc4cc(C(F)(F)F)ccn4)cc3)c12` [Example 139, (1R,3R,5S,6r)-3-[8-amino-1-(4-{[4-(trifluoromethyl)pyridin-2-yl]carbamoyl}phenyl)imidazo[1,5-a]pyrazin-3-yl]bicyclo[3.1.0] hexane-6-carboxylic acid], the IC50 is 10 µM.

Take `Nc1nccn2c1c(-c1ccc(C(=O)Nc3cc(C(F)(F)F)ccn3)cc1)nc2[C@H]1CC[C@@H](C(=O)O)CC1` [Example 158, cis-4-[8-amino-1-(4-{[4-(trifluoromethyl)pyridin-2-yl]carbamoyl}phenyl)imidazo[1,5-a]pyrazin-3-yl]cyclohexane-carboxylic acid]: the IC50 was found to be 10 µM.

Turning to `Nc1nccn2c([C@H]3C[C@@H]4[C@H](C3)[C@@H]4C(=O)O)nc(-c3ccc(C(=O)Nc4cc(C(F)(F)F)ccn4)cc3)c12` [Example 140, (1R,3r,5S,6s)-3-[8-amino-1-(4-{[4-(trifluoromethyl)pyridin-2-yl]carbamoyl}phenyl)imidazo[1,5-a]pyrazin-3-yl]bicyclo[3.1.0] hexane-6-carboxylic acid], the IC50 was 10 µM.

For `CC(C)[C@H]1CC[C@@H](c2nc(-c3ccc(C(=O)Nc4cc(C(F)(F)F)ccn4)cc3)c3c(N)nccn23)C[C@H]1C(=O)O` [Example 99, (1R,2R,5R)-5-[8-amino-1-(4-{[4-(trifluoromethyl)pyridin-2-yl]carbamoyl}phenyl)imidazo[1,5-a]pyrazin-3-yl]-2-(1-methylethyl) cyclohexane-carboxylic acid], the IC50 was 2.51 µM.

With `CC(C)[C@]1(C(=O)O)CC[C@H](c2nc(-c3ccc(C(=O)Nc4cc(C(F)(F)F)ccn4)cc3)c3c(N)nccn23)C1` [Example 49, (1S,3S)-3-[8-amino-1-(4-{[4-(trifluoromethyl)pyridin-2-yl]carbamoyl}phenyl)imidazo[1,5-a]pyrazin-3-yl]-1-(1-methylethyl) cyclopentane-carboxylic acid], the IC50 came out at 0.922 µM.

As to `CC(C)[C@]1(C(=O)O)CC[C@@H](c2nc(-c3ccc(C(=O)Nc4cc(C(F)(F)F)ccn4)cc3)c3c(N)nccn23)C1` [Example 46, (1S,3R)-3-[8-amino-1-(4-{[4-(trifluoromethyl)pyridin-2-yl]carbamoyl}phenyl)imidazo[1,5-a]pyrazin-3-yl]-1-(1-methylethyl) cyclopentane carboxylic acid], the IC50 was 4 µM.

Regarding `CC(C)[C@@]1(C(=O)O)CC[C@H](c2nc(-c3ccc(C(=O)Nc4cc(C(F)(F)F)ccn4)cc3)c3c(N)nccn23)C1` [Example 48, (1R,3S)-3-[8-amino-1-(4-{[4-(trifluoromethyl)pyridin-2-yl]carbamoyl}phenyl)imidazo[1,5-a]pyrazin-3-yl]-1-(1-methylethyl) cyclopentane-carboxylic acid], the IC50 was 3.76 µM.

As to `Nc1nccn2c([C@H]3CC[C@@H](C(=O)O)C3)nc(-c3ccc(C(=O)Nc4cc(C(F)(F)F)ccn4)cc3)c12` [Example 14, (1R,3S)-3-(8-amino-1-(4-((4-(trifluoromethyl)pyridin-2-yl)carbamoyl)phenyl)imidazo[1,5-a]pyrazin-3-yl)cyclopentanecarboxylic acid], the IC50 came out at 2.5 µM.

For the compound `Nc1nccn2c([C@@H]3C[C@@H]4[C@H](C3)[C@H]4C(=O)O)nc(-c3ccc(C(=O)Nc4cc(C(F)(F)F)ccn4)cc3)c12` [Example 125, (1R,3R,5S,6r)-3-[8-amino-1-(4-{[4-(trifluoromethyl)pyridin-2-yl]carbamoyl}phenyl)imidazo[1,5-a]pyrazin-3-yl]bicyclo[3.1.0]hexane-6-carboxylic acid], the IC50 came to 2.69 µM.

In the case of `C[C@]1(C(=O)O)CCC[C@@H](c2nc(-c3ccc(C(=O)Nc4cc(C(F)(F)F)ccn4)cc3)c3c(N)nccn23)C1` [Example 154, (1S,3R)-3-[8-amino-1-(4-{[4-(trifluoromethyl)pyridin-2-yl]carbamoyl}phenyl)imidazo[1,5-a]pyrazin-3-yl]-1-methylcyclohexane-carboxylic acid], the IC50 was determined as 10 µM.

In the case of `CC(C)[C@]1(C(=O)O)CCC[C@@H](c2nc(-c3ccc(C(=O)Nc4cc(C(F)(F)F)ccn4)cc3)c3c(N)nccn23)C1` [Example 89, (1S,3R)-3-[8-amino-1-(4-{[4-(trifluoromethyl)pyridin-2-yl]carbamoyl}phenyl)imidazo[1,5-a]pyrazin-3-yl]-1-(1-methylethyl) cyclohexane-carboxylic acid], the IC50 was determined as 3.41 µM.

As for `Nc1nccn2c([C@@H]3C[C@@H]4[C@H](C3)[C@@H]4C(=O)O)nc(-c3ccc(C(=O)Nc4cc(C(F)(F)F)ccn4)cc3)c12` [Example 124, (1R,3r,5S,6s)-3-[8-amino-1-(4-{[4-(trifluoromethyl)pyridin-2-yl]carbamoyl}phenyl)imidazo[1,5-a]pyrazin-3-yl]bicyclo[3.1.0] hexane-6-carboxylic acid], the IC50 amounted to 6.12 µM.
